Test results as given in publication PMC6348446 (Journal of Medicinal Chemistry, 2018).

Columns and labels:
[1] = target: T1, VCB in the presence of BRD9-BD (Homo sapiens, UniProt P40337+Q9H8M2); experiment: Fluorescence polarization, displacement of FAM-labeled HIF-1α peptide in the presence of BRD9-BD (ternary); assay type: binding; conditions: binary versus ternary
T1 construct: the bromodomain (residues 134–239) for BRD9 (Q9H8M2); His6 (cleaved yes); made in house; host or cells: Escherichia coli BL21(DE3)

[2] = target: T2, BRD9 bromodomain (BRD9-BD) (Homo sapiens, UniProt Q9H8M2); experiment: ITC, BRD9-BD titrated into PROTAC (binary); assay type: binding; conditions: 25 °C
T2 construct: the bromodomain (residues 134–239) for BRD9 (Q9H8M2); His6 (cleaved yes); made in house; host or cells: Escherichia coli BL21(DE3)
T2 sequence (Q9H8M2 134-239): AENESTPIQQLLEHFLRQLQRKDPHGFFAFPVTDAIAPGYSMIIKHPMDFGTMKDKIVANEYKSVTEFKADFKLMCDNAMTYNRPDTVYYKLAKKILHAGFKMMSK

[3] = target: T3, VCB:PROTAC:BRD9-BD ternary complex (Homo sapiens, UniProt P40337+Q9H8M2); experiment: AlphaLISA proximity assay of ternary complex formation; assay type: binding; conditions: for AlphaLISA max intensity: biotinylated VCB 100 nM, His6-BRD9-bromodomain 100 nM
T3 construct: the bromodomain (residues 134–239) for BRD9 (Q9H8M2); made in house; host or cells: Escherichia coli BL21(DE3)
Protocol: All assays were performed at room temperature in 384-well plates with a final assay volume of 25 μL per well, as described previously.[5] All reagents were prepared as 5× stocks diluted in 50 mM HEPES, pH 7.5, 100 mM NaCl, 0.1% (w/v) bovine serum albumin, and 0.02% (w/v) 3-[(cholamidopropyl)dimethylammonio]-1-propanesulfonate (CHAPS). Plates were sealed by transparent film and briefly centrifuged at 100g between additions of reagents. Biotinylated VCB (100 nM final) and His6-BRD9-bromodomain (100 nM final) were incubated with a range of PROTAC concentrations (0.5–2000 nM; two-in-one serial dilution) for 1 h. Streptavidin-coated donor beads and nickel chelate acceptor beads (PerkinElmer) were added to a final concentration of 10 μg mL^–1, and plates were incubated for another hour. Plates were read on a PHERAstar FS (BMG Labtech) using an optic module with an excitation wavelength of 680 nm and emission wavelength of 615 nm. Intensity values were plotted against PROTAC concentration on a log10 scale using GraphPad Prism, version 7. To obtain biotinylated-VCB, protein was mixed with EZ-link NHS-PEG4-biotin (Thermo Scientific) in a 1:1 molar ratio and incubated at room temperature for 1 h. The reaction was quenched using 1 M Tris-HCl, pH 7.5, and unreacted NHS-biotin was removed with a PD-10 MiniTrap desalting column (GE Healthcare) equilibrated with 20 mM HEPES, pH 7.5, 150 mM NaCl, and 1 mM DTT.

[4] = Parallel Artificial Membrane Permeability Assay (PAMPA); assay type: in vitro ADME; conditions: for recovery at 5 h, 10 µM / PAMPA pH 7.4 HIGH/MED/LOW: pH 7.4; for PAMPA pH 7.4 HIGH/MED/LOW: permeability class
Protocol: Test compound (10 µM) was incubated in pre-warmed plasma at 37 ᵒC (that is buffered to pH 7.4 in ratio of 70:30 plasma to buffer). Immediately, at time zero, then at 30, 60, 120, and 180 min, a 50 µL aliquot of the incubation mixture was removed and mixed with 200 µL acetonitrile containing Donepezil as the internal standard (50 ng/ml) to stop the reaction. The samples were centrifuged to sediment the precipitated protein and the plates then sealed prior to UPLC-MS/MS analysis using a Xevo TQ-S Micro (Waters Corporation, USA).
XLfit (IDBS, UK) was used to calculate the exponential decay and consequently the rate constant (k) from the ratio of peak area of test compound to internal standard at each time point. The half-life was calculated for each test compound from the rate by using the […]
Parallel Artificial Membrane Permeability Assay (PAMPA)
PAMPA was performed using a 96-well pre-coated BD Gentest™ PAMPA plate (BD Biosciences, U.K.). Each well was divided into two chambers; donor and acceptor, separated by a lipid-oil-lipid tri-layer constructed in a porous filter. The effective permeability, Pe, of the compound was measured at pH 7.4. Stock solutions (5 mM) of the compound were prepared in DMSO. The compound was then further diluted to 10 µM in phosphate buffered […]
saline at pH 7.4. […] The compound […]
dissolved in phosphate buffered saline was then added to the donor side of the membrane and phosphate buffered saline without compound was added to the acceptor side. The PAMPA plate was left at room temperature for 5 h. After which time, an aliquot (100 µL) was then […]
removed from both acceptor and donor compartments and mixed with acetonitrile (80 µL) containing an internal standard. The samples were centrifuged (10 min, 5 °C, 3270 g) to sediment precipitated protein and sealed prior to UPLC-MS/MS analysis using a Xevo TQ-S Micro (Waters Corp, USA). Pe was calculated as shown in the below equation: […]
CA(t) = peak area of compound present in acceptor well at time t = 18000 s Cequi = [CD(t) x VD + CA(t) x VA] / (VD + VA)
VA = acceptor well volume
CD(t) = peak area of compound present in donor well at time t = 18000 s Recovery of compound from donor and acceptor wells was calculated and data was only accepted when recovery exceeded 70%.
Using a fast gradient, reverse-phase HPLC method to determine the chromatographic hydrophobicity index (CHI) was determined as described by Camurri and Zaramella (ref. 3) and Valko et al. (ref. 4). Briefly, by plotting the retention time of a set of reference

T1 sequence (P40337 54-213 limits assumed, one chain of several): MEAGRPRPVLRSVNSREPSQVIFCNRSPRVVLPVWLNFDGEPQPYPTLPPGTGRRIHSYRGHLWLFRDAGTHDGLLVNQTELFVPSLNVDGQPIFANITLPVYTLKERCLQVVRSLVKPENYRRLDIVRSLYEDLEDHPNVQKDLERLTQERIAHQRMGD
T1 sequence (Q15369 17-112 partner limits assumed, one chain of several): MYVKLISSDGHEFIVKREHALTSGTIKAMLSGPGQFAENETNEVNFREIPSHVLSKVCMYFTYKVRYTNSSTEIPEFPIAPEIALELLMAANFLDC
T1 sequence (Q15370 1-104 partner limits assumed, one chain of several): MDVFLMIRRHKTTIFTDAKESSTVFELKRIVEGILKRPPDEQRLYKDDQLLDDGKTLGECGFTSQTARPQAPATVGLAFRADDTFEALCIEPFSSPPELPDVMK
T3 sequence (P40337 54-213 limits assumed, one chain of several): as the sequence (P40337 54-213 limits assumed, one chain of several) above
T3 sequence (Q15369 17-112 partner limits assumed, one chain of several): as the sequence (Q15369 17-112 partner limits assumed, one chain of several) above
T3 sequence (Q15370 1-104 partner limits assumed, one chain of several): as the sequence (Q15370 1-104 partner limits assumed, one chain of several) above

Compound	cooperativity α (FP) [1]	N (stoichiometry), BRD9-BD into PROTAC [2]	ΔG, BRD9-BD into PROTAC [2]	AlphaLISA max intensity [3]	ΔH, BRD9-BD into PROTAC [2]	–TΔS, BRD9-BD into PROTAC [2] [kcal/mol]	recovery at 5 h, 10 µM ([4]; PAMPA) [%]	PAMPA pH 7.4 Pe ([4]; pH 7.4, 5 h) [nm/s]	PAMPA pH 7.4 HIGH/MED/LOW [4]	increase in the maximum α intensity compared to VCB:5:BRD9-BD ([3]; AlphaLISA) [%]	PAMPA pH 7.4 HIGH/MED/LOW ([4]; listed as VZ185)	Papp at 5 h, 10 µM ([4]; PAMPA, pH 7.4, 5 h, read-out: PAMPA pH 7.4 Pe) [×10⁻⁶ cm/s]
COc1cc(-c2cn(C)c(=O)c3cnccc23)cc(OC)c1CN1CCN(CCOCCOCC(=O)N[C@H](C(=O)N2C[C@H](O)C[C@H]2C(=O)NCc2ccc(-c3scnc3C)cc2)C(C)(C)C)CC1 [Compound 5, (2S,4R)-1-((S)-2-(2-(2-(2-(4-(2,6-Dimethoxy-4-(2-methyl-1-oxo-1,2-dihydro-2,7-naphthyridin-4-yl)benzyl)piperazin-1-yl)ethoxy)ethoxy)acetamido)-3,3-dimethylbutanoyl)-4-hydroxy-N-(4-(4-methylthiazol-5-yl)benzyl)pyrrolidine-2-carboxamide]	0.24	0.753 ± 0.004	–10.7 ± 0.1 kcal/mol	1.0 × 10^6	–	–	–	–	–	–	–	–
COc1cc(-c2cn(C)c(=O)c3cnccc23)cc(OC)c1CN1CCN(CCOCCOCCOc2cc(-c3scnc3C)ccc2CNC(=O)[C@@H]2C[C@@H](O)CN2C(=O)[C@@H](NC(=O)C2(F)CC2)C(C)(C)C)CC1 [Compound 26, (2S,4R)-N-(2-(2-(2-(2-(4-(2,6-Dimethoxy-4-(2-methyl-1-oxo-1,2-dihydro-2,7-naphthyridin-4-yl)benzyl)piperazin-1-yl)ethoxy)ethoxy)ethoxy)-4-(4-methylthiazol-5-yl)benzyl)-1-((S)-2-(1-fluorocyclopropane-1-carboxamido)-3,3-dimethylbutanoyl)-4-hydroxypyrrolidine-2-carboxamide]	1.17	1.00	–11.0 ± 0.1 kcal/mol	1.56 × 10^6	–11.4 ± 0.1 kcal/mol	0.44 ± 0.05	94	0.01	LOW and low cell permeability	50	–	–
COc1cc(-c2cn(C)c(=O)c3cnccc23)cc(OC)c1CN1CCN(CCCCCOc2cc(-c3scnc3C)ccc2CNC(=O)[C@@H]2C[C@@H](O)CN2C(=O)[C@@H](NC(=O)C2(F)CC2)C(C)(C)C)CC1 [Compound 51, (2S,4R)-N-(2-((5-(4-(2,6-Dimethoxy-4-(2-methyl-1-oxo-1,2-dihydro-2,7-naphthyridin-4-yl)benzyl)piperazin-1-yl)pentyl)oxy)-4-(4-methylthiazol-5-yl)benzyl)-1-((S)-2-(1-fluorocyclopropane-1-carboxamido)-3,3-dimethylbutanoyl)-4-hydroxypyrrolidine-2-carboxamide]	1.00	0.77	–11.35 ± 0.05 kcal/mol	1.47 × 10^6	–12.8 ± 0.1 kcal/mol	–	–	0.01	–	–	LOW and low cell permeability	–
COc1cc(-c2cn(C)c(=O)c3cnccc23)cc(OC)c1CN1CCN(CCCCCOc2cc(-c3scnc3C)ccc2CNC(=O)[C@@H]2C[C@H](O)CN2C(=O)[C@@H](NC(=O)C2(F)CC2)C(C)(C)C)CC1 [cisVZ185]	–	–	–	–	–	–	87	–	LOW	–	–	0.036
